Results reported in patent US8269015B2, “4-azetidinyl-1-heteroaryl-cyclohexane antagonists of CCR2” (Janssen Pharmaceutica N.V., priority 2009, dated 2012).

Target: T1, CCR2 (Homo sapiens, UniProt P41597)
T1 construct: host or cells: THP-1 (human monocytic cell line)
T1 sequence (P41597 1-360 isoform P41597-2): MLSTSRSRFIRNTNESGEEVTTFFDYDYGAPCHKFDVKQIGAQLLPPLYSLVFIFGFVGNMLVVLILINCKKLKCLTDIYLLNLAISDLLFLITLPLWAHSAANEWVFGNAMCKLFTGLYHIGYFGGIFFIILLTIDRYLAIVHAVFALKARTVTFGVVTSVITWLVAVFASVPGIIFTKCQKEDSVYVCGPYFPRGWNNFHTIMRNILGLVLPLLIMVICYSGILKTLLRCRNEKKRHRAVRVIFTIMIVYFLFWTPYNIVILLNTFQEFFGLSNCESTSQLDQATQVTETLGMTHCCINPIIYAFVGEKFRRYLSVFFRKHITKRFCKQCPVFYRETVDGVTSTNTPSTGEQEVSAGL
Test: MCP-1 Receptor Binding Assay in THP-1 Cells (125I labeled MCP-1)
Conditions: 0.5 nM 125I labeled MCP-1, 2 hours at 30° C., read-out: Inhibition of MCP-1 Binding IC50, CCR2 Binding
Procedure: Compounds of the invention were subjected to various representative biological tests. […] MCP-1 Receptor Binding Assay in THP-1 Cells
Human monocytic cell line THP-1 cells were obtained from American Type Culture Collection (Manassas, Va., USA). […] The cell density was maintained […].
1 μM cold MCP-1 was used for nonspecific binding.

N#CCn1cc(C2CCC(N3CC(NC(=O)CNC(=O)c4cccc(C(F)(F)F)c4)C3)CC2)ccc1=O (stereo not drawn) [Example 41, N-({1-[4-(1-Cyanomethyl-6-oxo-1,6-dihydro-pyridin-3-yl)-cyclohexyl]-azetidin-3-ylcarbamoyl}-methyl)-3-trifluoromethyl-benzamide] showed an IC50 of 130 nM.

O=C(CNC(=O)c1cccc(C(F)(F)F)c1)NC1CN(C2CCC(c3ccc(=O)n(CCO)c3)CC2)C1 (stereo not drawn) [Example 43, N-[(1-{4-[1-(2-Hydroxy-ethyl)-6-oxo-1,6-dihydro-pyridin-3-yl]-cyclohexyl}-azetidin-3-ylcarbamoyl)-methyl]-3-trifluoromethyl-benzamide] was tested, and the IC50 was 330 nM.

O=C(CNC(=O)c1cccc(C(F)(F)F)c1)NC1CN(C2CCC(c3cccc(=O)[nH]3)CC2)C1 (stereo not drawn) [Example 47, N-({1-[4-(6-Oxo-1,6-dihydro-pyridin-2-yl)-cyclohexyl]-azetidin-3-ylcarbamoyl}-methyl)-3-trifluoromethyl-benzamide] gave an IC50 of 180 nM.

Cn1cccc(C2CCC(N3CC(NC(=O)CNC(=O)c4cccc(C(F)(F)F)c4)C3)CC2)c1=O (stereo not drawn) [Example 48, N-({1-[4-(1-Methyl-2-oxo-1,2-dihydro-pyridin-3-yl)-cyclohexyl]-azetidin-3-ylcarbamoyl}-methyl)-3-trifluoromethyl-benzamide] showed an IC50 of 630 nM.

In the case of O=C(CNC(=O)c1ccccc1)NC1CN(C2CCC(c3c[nH]c4ccccc34)CC2)C1 (stereo not drawn) [Example 49, N-({1-[4-(1H-Indol-3-yl)-cyclohexyl]-azetidin-3-ylcarbamoyl}-methyl)-benzamide], the IC50 is reported as greater than 25000 nM.

Work on O=C(CNC(=O)c1cccc(C(F)(F)F)c1)NC1CN(C2CCC(c3c[nH]c4ccccc34)CC2)C1 (stereo not drawn) [Example 50, N-({1-[4-(1H-Indol-3-yl)-cyclohexyl]-azetidin-3-ylcarbamoyl}-methyl)-3-trifluoromethyl-benzamide] yielded an IC50 of 920 nM.

NC(=O)c1ncc(C2CCC(N3CC(NC(=O)CNC(=O)c4cccc(C(F)(F)F)c4)C3)CC2)s1 (stereo not drawn) [Example 53, 5-(4-{3-[2-(3-Trifluoromethyl-benzoylamino)-acetylamino]-azetidin-1-yl}-cyclohexyl)-thiazole-2-carboxylic acid amide] showed an IC50 of 1000 nM.

In the case of O=C(CNC(=O)c1cccc(C(F)(F)F)c1)NC1CN(C2CCC(c3c[nH]c(=O)s3)CC2)C1 (stereo not drawn) [Example 54, N-({1-[4-(2-Oxo-2,3-dihydro-thiazol-5-yl)-cyclohexyl]-azetidin-3-ylcarbamoyl}-methyl)-3-trifluoromethyl-benzamide], the IC50 is reported as 340 nM.

For Nc1noc(N)c1C1CCC(N2CC(NC(=O)CNC(=O)c3cccc(C(F)(F)F)c3)C2)CC1 (stereo not drawn) [Example 55, N-({1-[4-(3,5-Diimino-isoxazolidin-4-yl)-cyclohexyl]-azetidin-3-ylcarbamoyl}-methyl)-3-trifluoromethyl-benzamide], the IC50 was 125 nM.

Cn1cc(C2CCC(N3CC(NC(=O)CNC(=O)c4cccc(C(F)(F)F)c4)C3)CC2)c(=O)[nH]c1=O (stereo not drawn) [Example 56, N-({1-[4-(1-Methyl-2,4-dioxo-1,2,3,4-tetrahydro-pyrimidin-5-yl)-cyclohexyl]-azetidin-3-ylcarbamoyl}-methyl)-3-trifluoromethyl-benzamide] gave an IC50 of 5800 nM.

O=C(CNC(=O)c1cccc(C(F)(F)F)c1)NC1CN(C2CCC(c3noc(=O)[nH]3)CC2)C1 (stereo not drawn) [Example 57, N-({1-[4-(5-Oxo-4,5-dihydro-[1,2,4]oxadiazol-3-yl)-cyclohexyl]-azetidin-3-ylcarbamoyl}-methyl)-3-trifluoromethyl-benzamide] was tested, and the IC50 was 1100 nM.

O=C(CNC(=O)c1cccc(C(F)(F)F)c1)NC1CN(C2CCC(c3noc(C(Cl)(Cl)Cl)n3)CC2)C1 (stereo not drawn) [Example 58, N-({1-[4-(5-Trichloromethyl-[1,2,4]oxadiazol-3-yl)-cyclohexyl]-azetidin-3-ylcarbamoyl}-methyl)-3-trifluoromethyl-benzamide] gave an IC50 of 510 nM.
